Results: US10975056B2 (GlaxoSmithKline Intellectual Property Development Limited, priority 2016, dated 2021)
Counter-ions that a name gives are not always drawn. Like-named read-outs stand apart in the source and are kept apart here.

Key:
[1] = biological target: DNMT1 (Homo sapiens, UniProt P26358); assay: DNMT1 biochemical activity, breaklight assay and/or SPA assay
[2] = tested on: erythroid progenitor cells (EPCs); assay: Fetal hemoglobin (HbF) ELISA in day 7 erythroid progenitor cells; type: cell-based, human; settings: Homo sapiens, Erythroid progenitor cell, HbF ELISA, day 7 EPCs, 5 days; read-out: EPC ELISA (pEC50 category) (converted);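 further: for fetal hemoglobin induction normalized to vehicle-treated cells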
How it was run: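 HbF induction was read by anti-HbF sandwich ELISA (HRP/TMB, OD450) on lysates and normalized to vehicle-treated cells. Cells were day 7 erythroid progenitors derived from human bone marrow CD34+ cells, seeded at 1,000/well with 3 U/mL rhEPO. Compound was given for 5 days at 37 °C at final concentrations […].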

[3] = binned activity in either the breaklight or the SPA assay, read-out: DNMT1 BioChemical (pIC50 category) (converted)
[4] = binned activity in either the breaklight or the SPA assay

Sequence of DNMT1 (P26358 whole entry, looked up): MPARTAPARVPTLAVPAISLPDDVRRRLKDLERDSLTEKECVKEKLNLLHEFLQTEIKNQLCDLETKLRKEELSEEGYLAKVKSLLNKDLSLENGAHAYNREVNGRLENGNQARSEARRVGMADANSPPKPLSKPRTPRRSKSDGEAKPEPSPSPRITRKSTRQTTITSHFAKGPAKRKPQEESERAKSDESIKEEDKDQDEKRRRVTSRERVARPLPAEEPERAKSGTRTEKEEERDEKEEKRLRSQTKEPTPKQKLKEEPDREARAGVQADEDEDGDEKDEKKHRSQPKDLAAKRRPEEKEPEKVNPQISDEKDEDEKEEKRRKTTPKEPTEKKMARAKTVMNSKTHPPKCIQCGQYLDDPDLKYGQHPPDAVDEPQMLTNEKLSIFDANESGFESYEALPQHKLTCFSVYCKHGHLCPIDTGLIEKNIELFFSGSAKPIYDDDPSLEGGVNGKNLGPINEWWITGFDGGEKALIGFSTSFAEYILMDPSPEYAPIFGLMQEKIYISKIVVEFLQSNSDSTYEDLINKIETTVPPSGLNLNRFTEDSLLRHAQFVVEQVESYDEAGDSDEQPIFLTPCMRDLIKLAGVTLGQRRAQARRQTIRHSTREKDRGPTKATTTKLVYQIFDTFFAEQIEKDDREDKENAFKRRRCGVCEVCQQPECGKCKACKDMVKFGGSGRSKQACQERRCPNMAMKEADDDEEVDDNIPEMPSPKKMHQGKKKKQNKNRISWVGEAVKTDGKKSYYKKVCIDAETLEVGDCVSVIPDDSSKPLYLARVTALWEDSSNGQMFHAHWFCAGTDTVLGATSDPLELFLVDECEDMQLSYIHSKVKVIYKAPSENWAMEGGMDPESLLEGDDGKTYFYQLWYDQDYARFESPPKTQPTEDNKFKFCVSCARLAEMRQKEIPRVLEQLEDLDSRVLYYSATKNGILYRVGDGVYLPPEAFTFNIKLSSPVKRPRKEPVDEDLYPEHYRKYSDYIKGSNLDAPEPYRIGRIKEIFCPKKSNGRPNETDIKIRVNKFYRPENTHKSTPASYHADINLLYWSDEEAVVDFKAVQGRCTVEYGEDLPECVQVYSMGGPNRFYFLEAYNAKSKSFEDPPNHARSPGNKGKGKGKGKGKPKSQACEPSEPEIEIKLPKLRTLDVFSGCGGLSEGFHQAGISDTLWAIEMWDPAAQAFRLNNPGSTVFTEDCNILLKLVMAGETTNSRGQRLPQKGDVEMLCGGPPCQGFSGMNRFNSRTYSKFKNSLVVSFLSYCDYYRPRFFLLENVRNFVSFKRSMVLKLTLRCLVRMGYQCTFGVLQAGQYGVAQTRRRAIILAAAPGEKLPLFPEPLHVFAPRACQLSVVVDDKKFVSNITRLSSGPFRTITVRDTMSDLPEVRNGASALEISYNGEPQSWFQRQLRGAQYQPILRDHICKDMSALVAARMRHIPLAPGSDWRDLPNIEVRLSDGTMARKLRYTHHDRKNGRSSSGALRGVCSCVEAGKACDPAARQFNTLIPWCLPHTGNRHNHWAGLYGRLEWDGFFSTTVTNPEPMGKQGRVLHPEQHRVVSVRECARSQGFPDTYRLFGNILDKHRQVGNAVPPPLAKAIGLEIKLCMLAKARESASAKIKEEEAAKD

SMILES	IC50 [1, 3]	IC50 ([1]; breaklight assay and/or SPA assay, repeated experimental runs, read-out: average pIC50 against DNMT1 (converted))	EC50 [2]	DNMT1 BioChemical (pIC50 category) [1, 4]
CCc1c(C#N)c(SCc2ccc(CNC(=O)CNC(=O)OC(C)(C)C)cc2)nc(N2CCCN(C)CC2)c1C#N [Example 78, tert-Butyl (2-((4-(((3,5-dicyano-4-ethyl-6-(4-methyl-1,4-diazepan-1-yl)pyridin-2-yl)thio)methyl)benzyl)amino)-2-oxoethyl)carbamate]	0.316 to 1 µM	≥ 1 µM	> 31.6 µM	–
CN(CCOC(N)=O)c1nc(SC(C(N)=O)c2ccccc2)c(C#N)c(C2CC2)c1C#N (stereo not drawn) [Example 397, 2-((6-((2-Amino-2-oxo-1-phenylethyl)thio-3,5-dicyano-4-cyclopropylpyridin-2-yl)methyl)amino)ethyl carbamate]	0.316 to 1 µM	–	1 to 31.6 µM	–
CCc1c(C#N)c(SC(C(N)=O)c2ccccc2)nc(N2CCN(Cc3cnoc3)CC2)c1C#N (stereo not drawn) [Example 185]	0.316 to 1 µM	–	0.316 to 1 µM	–
CCc1c(C#N)c(SC(C(N)=O)c2ccccc2)nc(N2CC(CC(N)=O)C2)c1C#N (stereo not drawn) [Example 330, 2-((6-(3-(2-Amino-2-oxoethyl)azetidin-1-yl)-3,5-dicyano-4-ethylpyridin-2-yl)thio)-2-phenylacetamide]	–	–	1 to 31.6 µM	D (Category D: ≥6.5)
CCc1c(C#N)c(OCCN(C)C)nc(SC(C(N)=O)c2ccccc2)c1C#N (stereo not drawn) [Example 174, 2-((3,5-Dicyano-6-(2-(dimethylamino)ethoxy)-4-ethylpyridin-2-yl)thio)-2-phenylacetamide]	0.316 to 1 µM	–	0.316 to 1 µM	–
N#Cc1c(SC(C(N)=O)c2ccccc2)nc(N2CCC(NCCO)CC2)c(C#N)c1C1CC1 (stereo not drawn) [Example 657, 2-((3,5-dicyano-4-cyclopropyl-6-(4-((2-hydroxyethyl)amino)piperidin-1-yl)pyridin-2-yl)thio)-2-phenylacetamide]	–	–	1 to 31.6 µM	D (Category D: ≥6.5)
CCc1c(C#N)c(SCc2ccc(S(N)(=O)=O)cc2)nc(N2CCC(N)CC2)c1C#N [Example 345, 4-(((6-(4-Aminopiperidin-1-yl)-3,5-dicyano-4-ethylpyridin-2-yl)thio)methyl) benzenesulfonamide]	–	–	1 to 31.6 µM	D (Category D: ≥6.5)
CCc1c(C#N)c(SC(C(N)=O)c2ccccc2)nc(N(C)CCCN)c1C#N (stereo not drawn) [Example 670, 2-((6-((3-aminopropyl)(methyl)amino)-3,5-dicyano-4-ethylpyridin-2-yl)thio)-2-phenylacetamide hydrochloride]	–	–	< 0.316 µM	D (Category D: ≥6.5)

Next, values leading:

IC50 [1, 3]	IC50 ([1]; breaklight assay and/or SPA assay, repeated experimental runs, read-out: average pIC50 against DNMT1 (converted))	EC50 [2]	DNMT1 BioChemical (pIC50 category) [1, 4]	SMILES
0.316 to 1 µM	–	> 31.6 µM	–	CCc1c(C#N)c(SCc2ccc(C#N)c(C)c2)nc(N2CCCN(C)CC2)c1C#N [Example 295, 2-((4-Cyano-3-methylbenzyl)thio)-4-ethyl-6-(4-methyl-1,4-diazepan-1-yl)pyridine-3,5-dicarbonitrile]
–	–	< 0.316 µM	D (Category D: ≥6.5)	CCc1c(C#N)c(SC(C(N)=O)c2ccccc2)nc(N(C)CCN2[C@H](C)CC[C@@H]2C)c1C#N (stereo partly drawn) [Example 476, 2-(3,5-dicyano-6-((2-((2S,5R)-2,5-dimethylpyrrolidin-1-yl)ethyl)(methyl)amino)-4-ethylpyridin-2-ylthio)-2-phenylacetamide]
1 to 31.6 µM	–	0.316 to 1 µM	–	CCc1c(C#N)c(SC(C(N)=O)c2cccnc2F)nc(N2CCCN(C)CC2)c1C#N (stereo not drawn) [Example 225]
0.316 to 1 µM	–	0.316 to 1 µM	–	CCc1c(C#N)c(SCc2ccc(CS(C)(=O)=O)cc2)nc(N2CCCN(C)CC2)c1C#N [Example 403, 4-Ethyl-2-(4-methyl-1,4-diazepan-1-yl)-6-(4-(methylsulfonylmethyl)benzylthio)pyridine-3,5-dicarbonitrile]
–	–	1 to 31.6 µM	D (Category D: ≥6.5)	CCc1c(C#N)c(SCc2ccc(CNC(=O)CO)cc2)nc(N(C)C)c1C#N [Example 278, N-(4-(((3,5-Dicyano-6-(dimethylamino)-4-ethylpyridin-2-yl)thio)methyl)benzyl)-2-hydroxyacetamide]
